# Measurements reported in patent publication US9481636B2, “N-benzylaniline derivative and uses thereof” (Nanjing Medical University, priority 2011, dated 2016).
# Tested on: OGD-injuried neurons (primary cortical neurons)
# Assay: Cell viability assay: LDH release by OGD-injured primary cortical neurons
# Assay type: cell-based, mice
# Details: Mus musculus, Primary cortical neuron; drug concentration 10^−6 M/L; OGD 2 hours, LDH after 8 hours
# Protocol: After primary neurons were cultured for 9 days, the medium was replaced by DMEM high glucose medium containing 1% FBS, serum-starved overnight and then washed twice with OGD culture solution. This OGD culture solution contains DMEM medium, 1% FBS, 1% penicillin/streptomycin and B27, and contains no sugar. Then, the primary neurons were incubated with the test drugs for 30 minutes, OGD culture solution was added into an anaerobic tank and oxygen-deprived for 2 hours. The OGD culture solution was discarded, and replaced by oxygen-saturated DMEM medium containing 1% FBS, 1% penicillin/streptomycin and B27. After 8 hours the culture solution was collected to measure LDH level.
# After the primary cortical neurons were treated with various processes, neuronal culture solution in six-well plates was pipetted to a 1.5 mL plastic centrifuge tube; cells were washed three times with PBS solution and each well was added PBS 1000 μl. The cells were freezed and thawed repeated for three times, centrifuged at 12000′ g for 5 minutes at 4° C., and the supernatant was removed for use. The activity of LDH enzyme was determined with 50 μl culture solution and 25 μl supernatant using lactate dehydrogenase kit.
# Protective Effects of the Objective Compounds Against Primary Cortical Neuronal Injury Cultured In Vitro (See Table 2)
row,Molecule,inhibition at 1 µM [%]
1,"COc1cc(NCc2cc(C(F)(F)F)cc(Cl)c2O)ccc1C(=O)OC1CC2CCC1(C)C2(C)C (stereo not drawn) [ZL006-49, bornyl-2-methoxy-4-(2-hydroxy-3-chloro-5-trifluoromethylbenzyl)aminobenzoate]",32.6
2,"CC1(C)C2CCC1(C)C(OC(=O)c1ccc(NCc3cc(Cl)cc(Cl)c3O)c(Cl)c1O)C2 (stereo not drawn) [ZL006-17, bornyl-2-hydroxy-3-chloro-4-(2-hydroxy-3,5-dichlorobenzyl)aminobenzoate]",48.2
3,"CC1(C)C2CCC1(C)C(OC(=O)c1ccc(NCc3cc(C(F)(F)F)cc(Cl)c3O)cc1O)C2 (stereo not drawn) [ZL006-47, bornyl-2-hydroxy-4-(2-hydroxy-3-chloro-5-trifluoromethylbenzyl)aminobenzoate]",84.2
4,"CC(Nc1ccc(C(=O)O)c(O)c1)c1cc(Br)ccc1O (stereo not drawn) [ZL006-15, 2-hydroxy-4-[1-(2-hydroxy-5-bromo-phenyl)]ethylaminobenzoic acid]",28.6
5,"CC(=O)Oc1c(C(=O)OC2CC3CCC2(C)C3(C)C)ccc(NCc2cc(Cl)cc(Cl)c2O)c1Cl (stereo not drawn) [ZL006-19, bornyl-2-acetyloxy-3-chloro-4-(2-hydroxy-3,5-dichlorobenzyl)aminobenzoate]",23.9
6,"CCCCOc1cc(NCc2cc(C(F)(F)F)cc(Cl)c2O)ccc1C(=O)OC1CC2CCC1(C)C2(C)C (stereo not drawn) [ZL006-50, bornyl-2-n-butoxy-4-(2-hydroxy-3-chloro-5-trifluoromethylbenzyl)aminobenzoate]",40.2
7,"COc1c(Cl)cc(C(F)(F)F)cc1CNc1ccc(C(=O)OC2CC3CCC2(C)C3(C)C)c(O)c1 (stereo not drawn) [ZL006-79, bornyl-2-hydroxy-4-(2-methoxy-3-chloro-5-trifluoromethylbenzyl)aminobenzoate]",58.3

# Same assay, conditions: drug concentration 10^−6 M/L; OGD 2 hours, LDH after 8 hours
row,Molecule,Inhibition of LDH release (%)
1,"CC1(C)C2CCC1(C)C(OC(=O)c1ccc(NCc3cc(F)cc(Cl)c3O)cc1O)C2 (stereo not drawn) [ZL006-08, bornyl-2-hydroxy-4-(2-hydroxy-3-chloro-5-fluorobenzyl) aminobenzoate]",50.4
2,"CCCCOc1cc(NCc2cc(F)cc(Cl)c2O)ccc1C(=O)OC1CC2CCC1(C)C2(C)C (stereo not drawn) [ZL006-58, bornyl-2-n-butoxy-4-(2-hydroxy-3-chloro-5-fluorobenzyl) aminobenzoate]",25.1
3,"CCCCOc1cc(NCc2cc(Cl)cc(Cl)c2O)ccc1C(=O)OC1CC2CCC1(C)C2(C)C (stereo not drawn) [ZL006-21, bornyl-2-n-butoxy-4-(2-hydroxy-3,5-dichlorobenzyl) aminobenzoate]",6.2
4,"CCCCOc1cc(NCc2cc(Br)cc(Cl)c2O)ccc1C(=O)OC1CC2CCC1(C)C2(C)C (stereo not drawn) [ZL006-42, bornyl-2-n-butoxy-4-(2-hydroxy-3-chloro-5-bromobenzyl) aminobenzoate]",37.7
5,"CC(=O)Oc1cc(NCc2cc(Br)ccc2O)ccc1C(=O)OC1CC2CCC1(C)C2(C)C (stereo not drawn) [ZL006-65, bornyl-2-acetyloxy-4-(2-hydroxy-5-bromobenzyl) aminobenzoate]",38.2
6,"COc1cc(NCc2cc(C(F)(F)F)ccc2O)ccc1C(=O)OC1CC2CCC1(C)C2(C)C (stereo not drawn) [ZL006-73, bornyl-2-methoxy-4-(2-hydroxy-5-trifluoromethylbenzyl) aminobenzoate]",25.3
7,"CC(=O)N(Cc1cc(Br)cc(Cl)c1O)c1ccc(C(=O)OC2CC3CCC2(C)C3(C)C)c(O)c1 (stereo not drawn) [ZL006-46, bornyl-2-hydroxy-4-[N-(2-hydroxy-3-chloro-5-bromobenzyl)-N-acetyl]aminobenzoate]",72.5
8,"bornyl-2-(2-methoxy-2-carbonylethoxy)-4-[N-(2-hydroxy-3,5-dichlorobenzyl)-N-methyl]aminobenzoate [ZL006-34]",24.1
9,"CC1(C)C2CCC1(C)C(OC(=O)c1cc(NCc3cc(Cl)cc(Cl)c3O)ccc1O)C2 (stereo not drawn) [ZL006-01, bornyl-2-hydroxy-5-(2-hydroxy-3,5-dichlorobenzyl) aminobenzoate]",2.3
10,"CN(Cc1cc(F)cc(Cl)c1O)c1ccc(C(=O)OC2CC3CCC2(C)C3(C)C)c(O)c1 (stereo not drawn) [ZL006-61, bornyl-2-hydroxy-4-[N-(2-hydroxy-3-chloro-5-fluorobenzyl)-N-methyl]aminobenzoate]",56.5
11,"CC1(C)C2CCC1(C)C(OC(=O)c1cc(NCc3cc(Cl)ccc3O)ccc1O)C2 (stereo not drawn) [ZL006-03, bornyl-2-hydroxy-5-(2-hydroxy-5-chlorobenzyl) aminobenzoate]",17.8
12,"COC(=O)c1ccc(N(Cc2cc(Cl)cc(Cl)c2O)C(C)=O)cc1OC(C)=O [ZL006-81, methyl 2-acetyloxy-4-[N-(2-hydroxy-3,5-dichlorobenzyl)-N-acetyl]aminobenzoate]",31.8
13,"CC(=O)Oc1cc(NCc2cc(F)ccc2O)ccc1C(=O)OC1CC2CCC1(C)C2(C)C (stereo not drawn) [ZL006-71, bornyl-2-acetyloxy-4-(2-hydroxy-5-fluorobenzyl) aminobenzoate]",7.8
14,"CC(=O)Oc1cc(NCc2cc(F)cc(Cl)c2O)ccc1C(=O)OC1CC2CCC1(C)C2(C)C (stereo not drawn) [ZL006-07, bornyl-2-acetyloxy-4-(2-hydroxy-3-chloro-5-fluorobenzyl) aminobenzoate]",20.7
15,"CCCCCCOc1cc(NCc2cc(Cl)cc(Cl)c2O)ccc1C(=O)OC1CC2CCC1(C)C2(C)C (stereo not drawn) [ZL006-22, bornyl-2-n-hexyloxy-4-(2-hydroxy-3,5-dichlorobenzyl) aminobenzoate]",2.5
16,"COc1c(Cl)cc(Br)cc1CNc1ccc(C(=O)OC2CC3CCC2(C)C3(C)C)c(O)c1 (stereo not drawn) [ZL006-77, bornyl-2-hydroxy-4-(2-methoxy-3-chloro-5-bromobenzyl) aminobenzoate]",44.1
17,"CC(=O)N(Cc1cc(C(F)(F)F)cc(Cl)c1O)c1ccc(C(=O)OC2CC3CCC2(C)C3(C)C)c(O)c1 (stereo not drawn) [ZL006-54, bornyl-2-hydroxy-4-[N-(2-hydroxy-3-chloro-5-trifluoromethylbenzyl)-N-acetyl]aminobenzoate]",74.2
18,"COc1cc(NCc2cc(F)cc(Cl)c2O)ccc1C(=O)OC1CC2CCC1(C)C2(C)C (stereo not drawn) [ZL006-57, bornyl-2-methoxy-4-(2-hydroxy-3-chloro-5-fluorobenzyl) aminobenzoate]",23.6
19,"CC(=O)Oc1cc(NCc2cc(Cl)ccc2O)ccc1C(=O)OC1CC2CCC1(C)C2(C)C (stereo not drawn) [ZL006-68, bornyl-2-acetyloxy-4-(2-hydroxy-5-chlorobenzyl) aminobenzoate]",1.2
20,"CCOC(=O)c1ccc(N(C)Cc2cc(Cl)cc(Cl)c2O)cc1C(=O)OCC [ZL006-13, diethyl 4-[N-(3,5-dichloro-2-hydroxybenzyl)-N-methyl]aminophthalate]",31.4
21,"COc1cc(NCc2cc(Br)cc(Cl)c2O)ccc1C(=O)OC1CC2CCC1(C)C2(C)C (stereo not drawn) [ZL006-41, bornyl-2-methoxy-4-(2-hydroxy-3-chloro-5-bromobenzyl) aminobenzoate]",45.5
22,"CC(=O)Oc1cc(N(Cc2cc(Cl)cc(Cl)c2O)C(C)=O)ccc1C(=O)OC1CC2CCC1(C)C2(C)C (stereo not drawn) [ZL006-31, bornyl-2-acetyloxy-4-[N-(2-hydroxy-3,5-dichlorobenzyl)-N-acetyl]aminobenzoate]",77.3
23,"CCCC(=O)Oc1cc(NCc2cc(Cl)cc(Cl)c2O)ccc1C(=O)OC1CC2CCC1(C)C2(C)C (stereo not drawn) [ZL006-23, bornyl-2-butyryloxy-4-(2-hydroxy-3,5-dichlorobenzyl) aminobenzoate]",18.7
24,"CC1(C)C2CCC1(C)C(OC(=O)c1ccc(NCc3cc(F)ccc3O)cc1O)C2 (stereo not drawn) [ZL006-69, bornyl-2-hydroxy-4-(2-hydroxy-5-fluorobenzyl) aminobenzoate]",17.3
25,"CC1(C)C2CCC1(C)C(OC(=O)c1ccc(NCc3cc(Br)ccc3O)cc1O)C2 (stereo not drawn) [ZL006-63, bornyl-2-hydroxy-4-(2-hydroxy-5-bromobenzyl) aminobenzoate]",22.8
26,"COc1cc(NCc2cc(Cl)ccc2O)ccc1C(=O)OC1CC2CCC1(C)C2(C)C (stereo not drawn) [ZL006-67, bornyl-2-methoxy-4-(2-hydroxy-5-chlorobenzyl) aminobenzoate]",0.4
27,"CC(=O)Oc1c(Cl)cc(Cl)cc1CNc1ccc(C(=O)OC2CC3CCC2(C)C3(C)C)c(O)c1 (stereo not drawn) [ZL006-76, bornyl-2-hydroxy-4-(2-acetyloxy-3,5-dichlorobenzyl) aminobenzoate]",40.5
28,"CN(Cc1cc(Br)cc(Cl)c1O)c1ccc(C(=O)OC2CC3CCC2(C)C3(C)C)c(O)c1 (stereo not drawn) [ZL006-45, bornyl-2-hydroxy-4-[N-(2-hydroxy-3-chloro-5-bromobenzyl)-N-methyl]aminobenzoate]",67.2
29,"CC(=O)Oc1cc(NCc2cc(F)cc(Cl)c2O)ccc1C(=O)OC1CC2CCC1(C)C2(C)C (stereo not drawn) [ZL006-59, bornyl-2-acetyloxy-4-(2-hydroxy-3-chloro-5-fluorobenzyl) aminobenzoate]",61.7
